Source: patent publication US11707467B2, “(17-ß)-3-oxoandrost-4-en-17YL tridecanoate compositions and methods of their preparation and use” (Lipocine Inc., priority 2014, dated 2023)

Legend:
[1] = Pharmacokinetic study: % responders by serum testosterone Cavg and Cmax; assay type: in vivo, human
Experimental: Some of the dosage forms of compositions described herein comprising or prepared from substantially pure (17-β)-3-Oxoandrost-4-en-17-yl tridecanoate were administered to human subjects as a single dose of the esters to subjects. Serial blood samples were drawn at predetermined time (e.g., t=0, 12, 24, etc.) and analyzed for testosterone concentration using a validated HPLC-MS/MS analytical method. The Cmax, Cavg t1-t2, Tmax and AUCt1-t2 are calculated for testosterone in the serum of the subjects. Pharmacokinetic and statistical analyses are performed on the data obtained from the subjects. The pharmacokinetic parameters are defined as follows: • AUCt1-t2: The area under the serum concentration versus time curve, from time t1 (in hours) to time t2 (in hours) measurable concentration of the administered drug, as calculated by the linear trapezoidal method. […] This represents the average serum testosterone level over a period starting from time 0 (zero) hours to […] post-administration of dose. It should also be noted that Cavg t0-t24 is also referred to as simply “Cavg” in this invention. • Cavg t0-t12: The average serum concentration of testosterone obtained by dividing the […] value by 12. This represents the average serum testosterone level over a period starting from time 0 (zero) hours to […] post-administration of dose. • Cavg t12-t24: The average serum concentration of testosterone obtained by dividing the AUCt12-t24 value by 12. This represents the average serum testosterone level over the second half of the 24-hours post-administration of dose period; i.e., from a period starting from time 12 hours to time 24 hours post-administration of dose.

[2] = tested on: developing oocytes in female mice; conditions: cited from earlier work
[3] = tested on: male and female mice; conditions: cited from earlier work
[4] = starting 100 (±50) mg T equivalent QD or BID, same formulation
[5] = starting 300 (±50) mg T equivalent QD, 12-20% API, 55-70% lipophilic additive, 12-20% hydrophilic additive
[6] = starting 350 (±100) mg T equivalent BID, same formulation
[7] = starting 1000 (±200) mg T equivalent QD or BID, same formulation

Row | Compound | % Responders with Cave t0-t24 (ng/dL) 300-1140 [1, 4] | % Responders with Cmax (ng/dL) 1800-2500 [1, 4] | % Responders with Cmax (ng/dL) >2500 [1, 4] | % Responders with Cmax (ng/dL) ≤1500 [1, 4] [%] | % Responders with Cave t0-t24 (ng/dL) 300-1140 [1, 5] [%] | % Responders with Cmax (ng/dL) 1800-2500 [1, 5] | % Responders with Cmax (ng/dL) >2500 [1, 5] | % Responders with Cmax (ng/dL) ≤1500 [1, 5] [%] | % Responders with Cave t0-t24 (ng/dL) 300-1140 [1, 6] [%] | % Responders with Cmax (ng/dL) 1800-2500 [1, 6] | % Responders with Cmax (ng/dL) >2500 [1, 6] | % Responders with Cmax (ng/dL) ≤1500 [1, 6] [%] | % Responders with Cave t0-t24 (ng/dL) 300-1140 [1, 7] [%] | % Responders with Cmax (ng/dL) 1800-2500 [1, 7] | % Responders with Cmax (ng/dL) >2500 [1, 7] | % Responders with Cmax (ng/dL) ≤1500 [1, 7] [%] | Effect on developing oocytes [2] | Carcinogenicity [3]
1 | CCCCCCCCCCCCC(=O)O[C@H]1CC[C@H]2[C@@H]3CCC4=CC(=O)CC[C@]4(C)[C@H]3CC[C@]12C [(17-β)-3-Oxoandrost-4-en-17-yl tridecanoate] | 50-65% | 0-5% | 0-1% | 100 | 100 | 0-5% | 0-1% | 100 | 100 | 0-5% | 0-1% | 100 | 100 | 20-30% | 60-80% | 0 | – | –
2 | C[C@]12CCC(=O)C=C1CC[C@@H]1[C@@H]2CC[C@]2(C)C(=O)CC[C@@H]12 [androstenedione] | – | – | – | – | – | – | – | – | – | – | – | – | – | – | – | – | induces abnormalities in morphology and function of developing oocytes | carcinogenic
